Reference: patent publication US20260021061A1, “ARIADNE AND ANALOGS FOR THE TREATMENT OF NEUROLOGICAL AND NEUROMUSCLAR DISORDERS” (priority 2022, published 2026)

Experiments:
Monoamine Oxidase MAO-A = biological target: T1, Monoamine Oxidase MAO-A (Homo sapiens, UniProt P21397); assay: SafetyScreen44 140010; assay type: biochemical; settings: 10 μM; Kynuramine; recombinant
T1 construct: Eurofins-Panlabs (contract screen) 140010
Experimental: (§1) A broad screen of 44 molecular targets (SafetyScreen44, Eurofins-Panlabs) for Ariadne were performed, which includes G protein-coupled receptors, steroid nuclear receptors, ion channels, neurotransmitter transporters, and metabolic and signaling enzymes. Only two molecular targets, 5-HT2A and 5-HT2B receptors, emerged above the positive hit threshold, defined as 50% displacement of standard radioligands by 10 uM concentration of Ariadne (FIG. 1b, and Table 1).
(§2) For species, “H”=human, “R”=rat. Test compound screened at all targets at concentration of 10 μM.

[1] = biological target: T2, Cholecystokinin CCK1 (CCKA) (Homo sapiens, UniProt P32238); assay: SafetyScreen44 218030; assay type: binding; settings: 10 μM; [125I]CCK-8; recombinant
T2 construct: Eurofins-Panlabs (contract screen) 218030
Experimental: as §1, §2

T1 sequence (P21397 whole entry): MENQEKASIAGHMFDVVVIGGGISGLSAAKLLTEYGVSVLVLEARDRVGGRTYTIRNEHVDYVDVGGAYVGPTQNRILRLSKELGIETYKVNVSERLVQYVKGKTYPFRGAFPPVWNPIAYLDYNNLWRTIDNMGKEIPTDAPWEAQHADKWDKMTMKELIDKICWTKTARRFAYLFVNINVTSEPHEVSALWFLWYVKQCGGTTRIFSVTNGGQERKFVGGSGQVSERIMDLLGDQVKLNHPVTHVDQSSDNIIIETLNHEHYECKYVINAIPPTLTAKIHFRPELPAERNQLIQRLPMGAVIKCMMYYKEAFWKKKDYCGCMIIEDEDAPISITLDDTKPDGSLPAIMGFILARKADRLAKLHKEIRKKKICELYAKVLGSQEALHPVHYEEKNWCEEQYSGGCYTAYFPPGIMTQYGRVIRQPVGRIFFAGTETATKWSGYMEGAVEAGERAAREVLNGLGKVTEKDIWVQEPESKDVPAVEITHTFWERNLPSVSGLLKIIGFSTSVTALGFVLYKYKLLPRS
T2 sequence (P32238 whole entry): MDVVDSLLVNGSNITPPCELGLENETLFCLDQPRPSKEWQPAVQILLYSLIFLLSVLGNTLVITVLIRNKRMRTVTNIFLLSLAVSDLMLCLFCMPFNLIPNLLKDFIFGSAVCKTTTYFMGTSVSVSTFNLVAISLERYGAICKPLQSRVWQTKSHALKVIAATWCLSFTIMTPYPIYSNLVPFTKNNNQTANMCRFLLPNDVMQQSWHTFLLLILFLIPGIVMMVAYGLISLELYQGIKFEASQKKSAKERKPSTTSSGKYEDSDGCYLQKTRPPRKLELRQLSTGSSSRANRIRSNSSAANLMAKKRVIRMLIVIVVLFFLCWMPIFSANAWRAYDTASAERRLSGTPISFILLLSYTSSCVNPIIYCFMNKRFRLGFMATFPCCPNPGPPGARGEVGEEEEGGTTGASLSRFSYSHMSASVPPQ

CCC(N)Cc1cc(OC)c(C)cc1OC (racemic) [Compound 32, 1-(2,5-dimethoxy-4-methylphenyl)butan-2-amine]
% Response (Monoamine Oxidase MAO-A): −3% | % Response [1]: 3%
